This is an account of results in article PMC7413254 (Nature Communications, 2020).

Substitutions are numbered along the chain they refer to. Where “and” joins values, the source holds several entries; their conditions need not be identical. Equal entries are not always repeated. Where two headings read alike, the source gives them in different places.

Test [1] has as its system C4^Dd2 parasites. Nature of the test: P. falciparum proliferation assay. It counts as cell-based, Plasmodium falciparum. The procedure:
(§1) Parasite proliferation was measured in 96-well plates using a fluorescent DNA-intercalating dye[68],[69]. Synchronous ring-stage parasite cultures (~1% haematocrit and 1% parasitaemia) were incubated with different concentrations of the test compound for 72 h at 37 °C and under reduced O2 conditions. The assay was terminated by freezing and thawing the samples, after which 100 μL of SYBR Safe DNA Gel Stain (Molecular Probes; 0.2 μL/mL) in a lysis buffer (20 mM Tris-HCl, 5 mM EDTA, 0.008% (w/v) saponin and 0.08% (v/v) Triton X-100; pH 7.5) was added to each well. The fluorescence from each well was measured using a Tecan Infinite M1000 PRO microplate reader (excitation wavelength 490 nm; emission wavelength 520 nm). The fluorescence values for the wells containing the highest concentration of the compound were averaged and this value was then subtracted from each of the well values obtained for that 96-well plate. The level of parasite proliferation in the presence of each compound concentration was expressed as a percentage of the proliferation measured in the absence of the compound. The IC50s were determined in SigmaPlot Windows Version 11.0 by a least-squares fit of the equation y = a/[1 + ([compound]/IC50)^c] to the data, where y is the percent parasite proliferation, a is the maximum change in the percent parasite proliferation, and c is a fitted constant. In all cases, five independent experiments were performed (on different days), and within each experiment measurements were averaged from three replicates.

For test [2], the system named is C6^7G8 parasites. Kind of test: P. falciparum proliferation assay. The test is classed as cell-based, Plasmodium falciparum. As to the method:
as §1

The subject of test [3] is 3D7 strain. Nature of the test: P. falciparum proliferation assay. It counts as cell-based, Plasmodium falciparum. The procedure:
as §1

Test [4] relates to 7G8 strain. Nature of the test: P. falciparum proliferation assay. The test is classed as cell-based, Plasmodium falciparum. The procedure:
as §1

Test [5] deals with C2^GC03 parasites. Nature of the test: P. falciparum proliferation assay. The test is classed as cell-based. The following applies: Plasmodium falciparum. The procedure: as §1
Test [6] has as its target T1, PfCRT^7G8 in C6^7G8 parasites (Plasmodium falciparum, UniProt Q8IBZ9, A220S/C72S/I351M/I356L/K76T/N326D).
T1 construct: PfCRT also functions as a peptide transporter within its native environment of the DV membrane; expressed in transfected cells; host or cells: P. falciparum pfcrt transfectant line C6^7G8 (saponin-isolated trophozoites)
T1 sequence (Q8IBZ9 1-424 C72S/K76T/A220S/N326D/I351M/I356L): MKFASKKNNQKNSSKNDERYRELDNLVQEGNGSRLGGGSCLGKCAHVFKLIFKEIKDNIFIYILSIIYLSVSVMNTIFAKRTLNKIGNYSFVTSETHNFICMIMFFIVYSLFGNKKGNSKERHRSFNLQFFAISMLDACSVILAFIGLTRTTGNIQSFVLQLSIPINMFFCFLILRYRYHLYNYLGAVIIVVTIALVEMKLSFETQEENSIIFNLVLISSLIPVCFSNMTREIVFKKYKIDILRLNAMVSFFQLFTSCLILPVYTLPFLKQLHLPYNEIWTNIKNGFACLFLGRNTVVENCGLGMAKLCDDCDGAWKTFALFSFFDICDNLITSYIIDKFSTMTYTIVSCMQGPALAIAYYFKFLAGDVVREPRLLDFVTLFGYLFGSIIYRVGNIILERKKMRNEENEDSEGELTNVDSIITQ
Nature of the test: P. falciparum H+-efflux assay (rate of DV alkalinisation after concanamycin A). The settings on record: C67G8; test solute 10 μM. The test is classed as cell-based.

The target of test [7] is T2, PfCRT^3D7 in C2^GC03 parasites (Plasmodium falciparum, UniProt Q8IBZ9).
T2 construct: PfCRT also functions as a peptide transporter within its native environment of the DV membrane; expressed in transfected cells; host or cells: P. falciparum pfcrt transfectant line C2^GC03 (saponin-isolated trophozoites)
T2 sequence (Q8IBZ9 1-424): T1 sequence (Q8IBZ9 1-424 C72S/K76T/A220S/N326D/I351M/I356L) with S72C, T76K, S220A, D326N, M351I, L356I
The description is as above. The settings on record: C2GC03; test solute 10 μM. It counts as cell-based.

Test [8] has as its target T3, PfCRT^Dd2 in C4^Dd2 parasites (Plasmodium falciparum, UniProt Q8IBZ9, A220S/I356T/K76T/M74I/N326S/N75E/Q271E/R371I).
T3 construct: PfCRT also functions as a peptide transporter within its native environment of the DV membrane; expressed in transfected cells; host or cells: P. falciparum pfcrt transfectant line C4^Dd2 (saponin-isolated trophozoites)
T3 sequence (Q8IBZ9 1-424 M74I/N75E/K76T/A220S/Q271E/N326S/I356T/R371I): T1 sequence (Q8IBZ9 1-424 C72S/K76T/A220S/N326D/I351M/I356L) with S72C, M74I, N75E, Q271E, D326S, M351I, L356T, R371I
The description is as above. It counts as cell-based. The following applies: C4Dd2; test solute 10 μM.

The subject of test [9] is Dd2 strain. Kind of test: P. falciparum proliferation assay. It counts as cell-based, Plasmodium falciparum. As to the method:
as §1

The target of test [10] is T4, PfNT1 (Plasmodium falciparum, UniProt Q8IDM6).
T4 construct: expressed in transfected cells; host or cells: Xenopus laevis oocytes (stage V-VI), cRNA-injected
It counts as cell-based. As to the method:
(§2) Measurements of the cis-inhibition of [^3H]CQ transport via PfCRT^Dd2 or PfCRT^Ecu1110 by a test solute (data presented in Fig. 1 and Supplementary Data 1,2) were performed on oocytes three days post-cRNA-injection[15],[21]. Ten oocytes were washed twice with the relevant ND96 buffer. The assay commenced with the addition of ND96 buffer supplemented with 0.25 μM [^3H]CQ, 15 μM unlabelled CQ, and the unlabelled solute under study (at a concentration specified in the figure legends and Supplementary Data 1, 2). The assay was terminated by removing the reaction buffer and washing the oocytes with ice-cold ND96 buffer. The oocytes were lysed in 10% (w/v) sodium dodecyl sulfate (SDS) and the radioactivity accumulated within each oocyte was measured with a MicroBeta^2 microplate liquid scintillation analyser (PerkinElmer).
(§3) Measurements of the uptake or efflux of a number of other radiolabelled compounds (Fig. 3k; Supplementary Fig. 3) were performed using the methods described above for [^3H]CQ and [^3H]VF-6, respectively.

Test [11] concerns non-expressing oocytes. The test is classed as cell-based, Xenopus laevis. As to the method:
as §2, §3

Where [12] appears, read: Plasmodium falciparum, DD2, C4Dd2, 72 h, 37 °C, SYBR Safe, mean ± SEM, n = 5, read-out: IC50 (μM), parasite proliferation, Control.
Where [13] appears, read: Plasmodium falciparum, C67G8, 72 h, 37 °C, SYBR Safe, mean ± SEM, n = 5, read-out: IC50 (μM), parasite proliferation, Control.
Setting [14] is: read-out: IC50 (μM), parasite proliferation, + 1 μM VP, C67G8, + 1 μM verapamil, 72 h, mean ± SEM, n = 5.
The mark [15] stands for this setting: Plasmodium falciparum, 3D7, 72 h, 37 °C, SYBR Safe, mean ± SEM, n = 5, read-out: IC50 (μM), parasite proliferation, Control.
[16] abbreviates: read-out: IC50 (μM), parasite proliferation, + 1 μM VP, SEM.
[17] abbreviates: Plasmodium falciparum, 72 h, read-out: IC50 (μM), parasite proliferation, Control, SEM.
Where [18] appears, read: read-out: IC50 (μM), parasite proliferation, + 1 μM VP, 7G8, + 1 μM verapamil, 72 h, mean ± SEM, n = 5.
Setting [19] is: 72 h, read-out: IC50 (μM), parasite proliferation, + 1 μM VP, SEM.
Where [20] appears, read: C2GC03, 72 h, 37 °C, SYBR Safe, mean ± SEM, n = 5, read-out: IC50 (μM), parasite proliferation, Control.

T4 sequence (Q8IDM6 whole entry): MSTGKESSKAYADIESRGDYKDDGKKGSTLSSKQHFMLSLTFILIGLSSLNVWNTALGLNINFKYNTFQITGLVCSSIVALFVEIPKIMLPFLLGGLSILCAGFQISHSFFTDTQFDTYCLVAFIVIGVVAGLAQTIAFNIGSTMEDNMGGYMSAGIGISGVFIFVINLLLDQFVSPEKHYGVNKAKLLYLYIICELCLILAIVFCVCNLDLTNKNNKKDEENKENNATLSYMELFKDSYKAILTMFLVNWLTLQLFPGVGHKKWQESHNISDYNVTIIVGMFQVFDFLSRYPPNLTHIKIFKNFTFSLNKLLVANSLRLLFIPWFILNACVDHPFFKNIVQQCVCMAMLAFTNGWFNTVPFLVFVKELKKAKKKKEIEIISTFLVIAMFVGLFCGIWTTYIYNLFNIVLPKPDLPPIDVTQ

In the case of `CC(C)(C)NC(=O)[C@@H]1CN(Cc2cccnc2)CCN1C[C@@H](O)C[C@@H](Cc1ccccc1)C(=O)N[C@H]1c2ccccc2C[C@H]1O` [Indinavir, indinavir], the IC50 in test [1] (setting [12]) turned out to be 2.2 ± 0.1 µM; in [2] (setting [13]), 1.1 ± 0.05 µM; in test [2] (setting [14]), 0.4 ± 0.02 µM; in test [3] (setting [15]), 4.1 ± 0.1 µM; in test [3] (setting [16]), 2.1 ± 0.8 µM; in [4] (setting [17]), 2.5 ± 0.2 µM. Further, the values for the IC50 in [4] (setting [18]), in test [5] (setting [19]) and in test [5] (setting [20]) were 0.5 ± 0.06 µM, 1.2 ± 0.8 µM and 4.2 ± 0.2 µM, respectively.
Consider `CC(=O)N[C@@H](CC(C)C)C(=O)N[C@@H](CC(C)C)C(=O)N[C@H](C=O)CCCNC(=N)N` [Leupeptin, leupeptin], for which the “Effect on rate of DV alkalinisation / H+ leak (in words)” value in test [6] is “induced a H^+ leak”; in test [7] it was “caused a H^+ leak”; in test [8] it was “neither peptide exerted an effect”.
On the same counts, the results for `Cc1cccc(C)c1OCC(=O)N[C@@H](Cc1ccccc1)[C@@H](O)C[C@H](Cc1ccccc1)NC(=O)[C@H](C(C)C)N1CCCNC1=O` [lopinavir] are “without effect”, “without effect” and “without effect”.
On the same counts, the results for `CC(C)c1nc(CN(C)C(=O)N[C@H](C(=O)N[C@@H](Cc2ccccc2)C[C@H](O)[C@H](Cc2ccccc2)NC(=O)OCc2cncs2)C(C)C)cs1` [ritonavir] are “without effect”, “without effect” and “without effect”.
Take `Cc1c(O)cccc1C(=O)N[C@@H](CSc1ccccc1)[C@H](O)CN1C[C@H]2CCCC[C@H]2C[C@H]1C(=O)NC(C)(C)C` [Nelfinavir, nelfinavir]: the IC50 stood at 4.1 ± 0.1 µM in test [1] (setting [12]); 0.7 ± 0.03 µM in [1] (read-out: IC50 (μM), parasite proliferation, + 1 μM VP, C4Dd2, + 1 μM verapamil, 72 h, mean ± SEM, n = 5); 5.7 ± 0.5 µM in test [9] (Plasmodium falciparum, DD2, 72 h, read-out: IC50 (μM), parasite proliferation, Control, SEM); 0.5 ± 0.02 µM in [9] (read-out: IC50 (μM), parasite proliferation, + 1 μM VP, Dd2, + 1 μM verapamil, 72 h, mean ± SEM, n = 5); 6.2 ± 0.3 µM in [2] (setting [13]); 1.4 ± 0.1 µM in test [2] (setting [14]). Further, the IC50 in test [3] (setting [15]) was determined as 15.3 ± 1.2 µM; in test [3] (setting [16]), 5.6 ± 0.8 µM; in [4] (setting [17]), 7.3 ± 0.6 µM; in [4] (setting [18]) it was 3.1 ± 0.3 µM; in test [5] (setting [19]), 4.6 ± 0.3 µM; in [5] (setting [20]), 13.1 ± 0.8 µM.
`O=c1[nH]cnc2nc[nH]c12` [[3H]hypoxanthine]: the “[3H]hypoxanthine transport into the oocyte, PfNT1” value in [10] came out at 100 % PfNT1. Moreover, the “[3H]hypoxanthine transport into the oocyte, non-expressing oocytes” value in [11] was 12.63 % PfNT1 and 13.63 % PfNT1 and 15.33 % PfNT1 and 10.43 % PfNT1 and 11.43 % PfNT1.
